According to patent EP1379634B1 (THE UNIVERSITY OF GEORGIA RESEARCH FOUNDATION, INC., priority 2001, dated 2002):
Residues, ends and D or L forms follow the SMILES beside them. *: point of attachment. AFC = O=c1cc(C(F)(F)F)c2ccc(N*)cc2o1; Cbz = O=C(OCc1ccccc1)*; CH2F = FC*

What was measured:
[1] = system: purified Taenia solium cysteine protease; experiment: Competitor assay of low Vmax substrates (vehicles) against high Vmax substrate cocktails (Step III), purified protease; type: biochemical; conditions: for inhibition with the 1.4% cocktail: 1.4% cocktail (Z-FR-AFC 1X10^-6 M); for inhibition with the final cocktail (7.4%): 7.4% cocktail (five high Vmax substrates, 1X10^-6 M each); for Ki of vehicle: Dixon plot, data not shown
Procedure: The top 1.4% of substrates (out of 67) in the full panel of substrates with the highest Vmax values were chosen to compose a "TOP 1.4% cocktail". (We employed "Vmax" here although Kcat could also be used). Due to the lower number of substrates, a percentage was not chosen for the "BOTTOM %" substrates. Alternately, all substrates which were not cleaved as determined by a value of 10 uM/hr or less, were chosen to be tested in this step for competitive ability. Hereinafter the term "vehicle" will represent low Vmax substrates that were capable of inhibiting cleavage of the percent cocktails. In this instance, we tested for "vehicles" which inhibited cleavage of the TOP 1.4% cocktail (they were delivered into the active site). Based upon our results from Step II, the top 1.4% cocktail was composed of Z-Phe-Arg-AFC, the highest cleaved substrate.
The experiment began with a competitor test between the noncleaved low Vmax substrates and the highest Vmax substrate, Z-Phe-Arg-AFC. Concentrations were varied between the low Vmax substrate and Z-Phe-Arg-AFC, as described above under "refinement of assay" until a relative inhibition profile was obtained.
The mixture was allowed to equilibrate for a period of 30 minutes. Finally, active purified enzyme was added to the tubes at a concentration that was always 50 times less than the concentration of the high and low Vmax substrates, respectively, in order to insure saturation conditions. This concentration varied from purification to purification and the amount added depended upon the yield and specific activity of the purified protease.
Positive controls were set up in a manner similar to that described for test controls, except that solvent was added in substitution for the low Vmax substrate (in a volume equal to the low Vmax volume addition). All of the substrates could be dissolved in dimethylsulfoxide (DMSO), and therefore, this was the solvent of choice. Negative controls were set up by adding the low Vmax and the high Vmax substrate in a tube without the protease. All potential non-proteolytic induced liberation of AFC was therefore controlled for in this tube (a feature which also monitored stability of the AFC substrates, since these substrates will freely liberate AFC when unstable). A tube set was established for this negative control.
All controls were set up in triplicate, and experiments were repeated a minimum of five times. The assays were incubated at 37°C, for 18 hours overnight.
Percent inhibition was calculated as: %Inhibition = ((AFC positive for "Y"−AFC negative for "Y")−(AFC test−AFC negative for "Y"))/(AFC positive for "Y"−AFC negative for "Y") × 100 [formula]
A 2.9% cocktail of the high Vmax substrates was made. This was composed of Z-FR-AFC and the second most cleaved substrate, Z-FAR-AFC. The vehicles promoted from the initial screenings above were again tested for competitive inhibition ability with the new cocktails. Their concentrations were set identically to those which were "fixed" in the previous protocols. In other words, 8X10^-6 M of the vehicle was added to the culture tube with 1X10^-6 M of Z-FR-AFC and 1X10^-6 M of Z-FAR-AFC. Active protease was added last at a concentration that was 50 times less than the concentration of the high Vmax substrate (to ensure saturating conditions).
In similar experimental fashion, a 4.4%, 5.9%, and 7.4% cocktail were tested with each of the promising vehicles. Each increase in the percentage represented an increase by an additional high Vmax substrate. Each of the individual components in the cocktail were added at 1X10^-6 M each, to 8X10^-6 M of the vehicle. The composition of the cocktails was as follows: 4.4% cocktail: Z-FR-AFC, Z-FAR-AFC, and Z-AAK-AFC (third highest cleaved substrate); 5.9% cocktail: Z-FR-AFC, Z-FAR-AFC, Z-AAK-AFC, and AP-AFC (fourth highest cleaved substrate); 7.4% cocktail: […], Z-FAR-AFC, Z-AAK-AFC, AP-AFC, and Z-VLR-AFC. […]

T. solium (cysteine) = experiment: Selectivity test (Steps VI and IX), T. solium cysteine protease; type: biochemical, Taenia solium
Procedure: In order to perform the assay, the vehicle (for Step VI) or inhibitor (for Step IX) were incubated with the appropriate substrate in the correct assay buffer and allowed to equilibrate. Subsequently, the protease was added, and the assay was allowed to incubate for an appropriate time. The concentrations used in this experiment were as follows: Vehicle was set up at 4 X 10^-5 M in final assay buffer; Inhibitor was set up at 3 X 10^-10 M in the final assay buffer. Preferably the dosages employed should be the minimal amount of vehicle or inhibitor necessary to induce inhibition. […] Substrates were set up based upon the preferred substrate for cleavage of the particular enzyme.
Positive controls were set up similarly as described for test controls, except that a solvent blank was added in substitution for the inhibitor or vehicle (in a volume equal to the volume of inhibitor or vehicle addition). All of the inhibitors and vehicles could be dissolved in dimethylsulfoxide (DMSO), and therefore, this was the solvent of choice. Negative controls were set up by adding the inhibitor or vehicle and the preferred substrates in a tube without the protease. All potential non-proteolytic liberation of AFC was therefore controlled for in this tube.
All controls were set up in triplicate, and experiments were repeated a minimum of five times.
Percent inhibition was calculated as: %Inhibition = ((AFC positive for "SI"−AFC negative for "SI")−(AFC test−AFC negative for "SI"))/(AFC positive for "SI"−AFC negative for "SI") × 100 [formula]
In this preliminary test, we employed the following human-derived enzymes (with indicated mechanistic class in parentheses): Cathepsin B (cysteine), Cathepsin L (cysteine), Cathepsin H (cysteine), Cathepsin D (aspartic), Trypsin (serine), the purified Taenia solium cysteine protease, and the Taenia solium crude mix. Cathepsin B was prepared in an assay buffer of 10 mM L-cysteine in 0.4 M Citrate buffer, pH 6.1, using Z-ARR-AFC as the cleavage substrate. Cathepsin L was prepared in an assay buffer of 10 mM L-cysteine in 0.4 M Citrate buffer, pH 5.5, using Z-FR-AFC as the cleavage substrate. Cathepsin H was prepared in an assay buffer of 10 mM L-cysteine in 0.15 M PBS buffer, pH 6.8, using L-R-AFC as the cleavage substrate. Cathepsin D was prepared in an assay buffer of 0.15 M PBS, pH 7.1, using Z-RGFFP-AFC as the cleavage substrate. Trypsin was prepared in an assay buffer of 0.15 M PBS, pH 8.0, supplemented with 100 mM CaCl2 and with Z-R-AFC as the cleavage substrate. Enzyme was incubated so that it was at least 50 times less than the concentration of substrate in order to insure saturating conditions.

CC(C)C[C@H](NC(=O)OCc1ccccc1)C(=O)N[C@@H](CC(C)C)C(=O)N[C@@H](CC(C)C)C(=O)Nc1ccc2c(C(F)(F)F)cc(=O)oc2c1 [Z-LLL-AFC, Z-Leu-Leu-Leu-AFC] (Cbz-Leu-Leu-Leu-{AFC})
inhibition with the 1.4% cocktail ([1]; vehicle 8X10^-6 M): greater than 20% | inhibition with the final cocktail (7.4%) ([1]; vehicle 8X10^-6 M): ≥ 50% | Ki of vehicle [1]: low Ki value | % inhibition (T. solium (cysteine); vehicle 4 X 10^-5 M): 68%

Mu-Leu-Tyr-AFC [Mu-LY-AFC]
inhibition with the final cocktail (7.4%) ([1]; vehicle 8X10^-6 M): ≥ 50% | Ki of vehicle [1]: low Ki value | V Value ([1]; V = P * M, P inhibition with first (1.4%) cocktail, M with last (7.4%) cocktail, vehicle 8X10^-6 M, each cocktail substrate 1X10^-6 M): 0.450 | % inhibition (T. solium (cysteine); vehicle 4 X 10^-5 M): 75%

CC(C)C[C@H](NC(=O)OCc1ccccc1)C(=O)N[C@@H](CC(C)C)C(=O)N[C@@H](Cc1ccc(O)cc1)C(=O)Nc1ccc2c(C(F)(F)F)cc(=O)oc2c1 [Z-LLY-AFC, Z-Leu-Leu-Tyr-AFC] (Cbz-Leu-Leu-Tyr-{AFC})
inhibition with the 1.4% cocktail ([1]; vehicle 8X10^-6 M): greater than 20% | inhibition with the final cocktail (7.4%) ([1]; vehicle 8X10^-6 M): ≥ 50% | Ki of vehicle [1]: low Ki value | % inhibition (T. solium (cysteine); vehicle 4 X 10^-5 M): 70%

CC(C)C[C@H](NC(=O)OCc1ccccc1)C(=O)N[C@@H](CC(C)C)C(=O)N[C@@H](Cc1ccc(O)cc1)C(=O)CF [Z-LLY-FMK, Z-Leu-Leu-Tyr-FMK] (Cbz-Leu-Leu-Tyr-CH2F)
% inhibition (T. solium (cysteine); inhibitor 3 X 10^-10 M): 62%
